Structures can show the parent of a compound that is named as a salt. Where two headings read alike, the source gives them in different places.
Tests used:
[1] = tested on: K562, U937, Jurkat, T47-D, MCF7, BT20 and 184B5 cell lines; experiment: Cytotoxicity in malignant and immortalized cell lines (manual counting, Alamar assay); assay type: cell-based; conditions: all of the cell lines tested
Protocol: These four compounds were added at different concentrations to cultures of various malignant cell lines and normal cells. The cell lines used for these tests were the following:
All leukemic cell lines were grown and used in logarithmic phase. After one day of treatment, the cells were isolated, counted and diluted in a regular growth medium to provide the cell density of about 75×10^3 cells/ml for reading on plates at 48 hours after the treatment, and […] for reading at 144 hours after the treatment.
Several dilutions of each compound tested were added to the wells (12 wells per plate, TPP), and 1 ml of cells from the parent solution was added per well after a line had been completed. The dilutions were made using the culture medium, and following dilutions were tested: control, which contained no compound of this invention; 1:100; 1:1,000; 1:2,000; 1:5,000; and 1:10,000. The starting concentrations for these dilutions were: 50 mg/ml for compound A; 10 mg/ml for compound B; 25 mg/ml for compound C; and 5 mg/ml for compound D. The results were analyzed by manual counting and Alamar reduced assay.
The cells were grown on their respective propagation medium and seeded 24 hours before the compounds are added. The cells were trypsinized, and 50,000 cells/well and 10,000 cells/well were seeded in order to read the plates at 48 hours and 144 hours after being treated by the compounds, respectively.
On the day of the treatment, the medium was replaced by 10 ml each of series dilution of the compounds, consisting of: control, which contained no compound of this invention; 1:100 dilution; 1:1,000 dilution; 1:2,000 dilution; and 1:5,000 dilution. The starting concentrations for these dilutions were: 50 mg/ml for compound A; 10 mg/ml for compound B; 25 mg/ml for compound C; and 5 mg/ml for compound D. The dilution was made using the growth medium.
A tested compound is regarded as being active in cytotoxicity where the percentage of surviving cells after the treatment with the compound is less than 30%.

TCTP = TCTP expression in treated U937 cells (western blot); assay type: cell-based; conditions: 24 hours, various dilutions
Protocol: U937 cells were treated with various dilutions of hydroxyzine, brompheniramine and promethazine for 24 hours as denoted in FIG. 23A. Starting concentrations were: 50 mg/ml for […] (“A”); 10 mg/ml for brompheniramine (“B”); and 25 mg/ml for promethazine (“C”). The proteins were isolated from these cells and loaded onto a gel for western blot analysis. A specific anti-TCTP (anti-HRF) antibody was used to visualize the location of TCTP. […] The level of actin in equal loading of extract was visualized by antiactin antibody (Santa Cruz Biotechnology). No substantial difference between the level of actin in treated and untreated cells was observed.

U937 cells = experiment: Antineoplastic activity, U937 cells injected in scid/scid mice, treatment from day 1; assay type: in vivo; conditions: 100 mg/kg; six mice
Protocol: Ten million U937 cells were subcutaneously injected into scid/scid mice. One injection was carried out per each of the 6 mice tested per set. The excipient or the compounds tested were administered intraperitoneally on day 1, i.e., the day of U937 cell line inoculation, of the experiment. The excipients or compounds were administered once daily. The tumor sizes were measured on day 5, day 8, day 12, day 14 and day 19 after the injection.

[2] = tested on: blastic cells from AML patients; experiment: Inhibition of viability of fresh leukemic cells (trypan blue exclusion); assay type: cell-based, human; conditions: Homo sapiens, day 3; for cytotoxicity at 10 µM: 10^-5 M; for cytotoxicity at 1 µM: 10^-6 M
Protocol: Samples for AML 1 through 5, AML 1 being the least and AML 5 being the most differentiated, were obtained. […] Cells were incubated with or without […] anti-histamine derivatives. Polaramine was included as a negative control. Cell counts were assessed by trypan blue exclusion test at day 3 after the incubation. Morphological analysis was performed using Wright-Giemsa staining on cytocentrifuge preparations. The results were expressed as % inhibition of growth as compared to negative control.

U937 = assay type: in vivo; conditions: for toxicity for the animals: mouse, in vivo; for tumor growth compared to the negative control: treatment from day 1, cells inoculated after more than 24 hours, daily administration
Protocol: The second protocol was designed to test the preventive effects of the compounds of this invention on tumorigenesis. In this protocol, the animals have been treated with various compounds of the present invention on day 1. After more than 24 hours, tumoral cells were inoculated. The administration of the compounds of this invention was maintained daily. The cell line used for this test was U937.

[3] = tested on: MDA-MB-231 (breast cancer line); experiment: Curative effects on palpable tumors, MDA-MB-231 cells in scid/scid mice; assay type: in vivo; conditions: for tumor growth: daily once tumors palpable, at least at the higher concentration tested; for death of test animals: higher dosage
Protocol: In this series of experiments, effects of various compounds of the present invention on tumor development were tested using two protocols. The first protocol is directed to the testing of curative effects of these compounds in different cell lines. In this protocol, cancerous cells are inoculated to the animals, and the inoculated animals were left without any further treatment until the development of tumors. As soon as the tumors became palable (4 mm^3), the compounds of this invention were administered daily to the animals.

[4] = tested on: K562, U937, MDA-DB231, BT20 and MCF7 cell lines; experiment: Cytotoxic effects in multi-well plate, 6 days, ATP level (CellTiter-Glo); conditions: 2x10^-9 M to 2x10^-4 M
Protocol: In order to test the cytotoxic effects of various compounds, a test was developed in a multi-well plate. Two leukemic cell lines, namely K562 and U937, and three breast cancer cell lines, namely MDA-DB231, BT20 and MCF7 were used for this test.
The cells were seeded at low density and were left for 24 hours to recover and reach a new logarithmic phase of growth. Various concentrations of the compounds being tested, ranging from 2×10^−9 M to 2×10^−4 M, were added in triplicate. The mixture was incubated for 6 days, during which approximately 4 doublings of the cell population occurred, to allow the cells to reach subconfluence.
The viability of the cultured cells after the treatment by the compounds was determined by quantifying the level of ATP since the level of ATP is directly proportional to the number of viable cells present in the culture. The ATP level was quantified by using CellTiter-Glo™ (Promega) luminescent test for cell viability.

[5] = 72 h, MEAN over AML patients, read-out: In Vitro Percent Inhibition of Viability, MEAN
[6] = 72 h, patient ID 3, FAB AML2, read-out: In Vitro Percent Inhibition of Viability
[7] = 72 h, patient ID 4, FAB AML2, read-out: In Vitro Percent Inhibition of Viability
[8] = 72 h, patient ID 5, FAB AML2, read-out: In Vitro Percent Inhibition of Viability
[9] = 72 h, patient ID 10, FAB AML4, read-out: In Vitro Percent Inhibition of Viability
[10] = 72 h, patient ID 11, FAB AML5, read-out: In Vitro Percent Inhibition of Viability
[11] = 72 h, patient ID 12, FAB AML5, read-out: In Vitro Percent Inhibition of Viability
[12] = 72 h, patient ID 13, FAB AML5, read-out: In Vitro Percent Inhibition of Viability
[13] = 72 h, patient ID 14, FAB AML5, read-out: In Vitro Percent Inhibition of Viability
[14] = 72 h, patient ID 15, FAB AML5, read-out: In Vitro Percent Inhibition of Viability
[15] = AML1, 72 h, patient ID 1, FAB AML1, read-out: In Vitro Percent Inhibition of Viability
[16] = AML1, 72 h, patient ID 2, FAB AML1, read-out: In Vitro Percent Inhibition of Viability
[17] = AML3, 72 h, patient ID 6, FAB AML3, read-out: In Vitro Percent Inhibition of Viability
[18] = AML3, 72 h, patient ID 7, FAB AML3, read-out: In Vitro Percent Inhibition of Viability
[19] = AML3, 72 h, patient ID 8, FAB AML3, read-out: In Vitro Percent Inhibition of Viability
[20] = AML3, 72 h, patient ID 9, FAB AML3, read-out: In Vitro Percent Inhibition of Viability

Row | SMILES | cytotoxicity at 10 µM [2, 5] | cytotoxicity at 1 µM [2, 5] | cytotoxicity at 10 µM [2, 6] | cytotoxicity at 1 µM [2, 6] | cytotoxicity at 10 µM [2, 7] | cytotoxicity at 1 µM [2, 7] | cytotoxicity at 10 µM [2, 8] | cytotoxicity at 1 µM [2, 8] | cytotoxicity at 10 µM [2, 9] | cytotoxicity at 1 µM [2, 9] | cytotoxicity at 10 µM [2, 10] | cytotoxicity at 1 µM [2, 10] | cytotoxicity at 10 µM [2, 11] | cytotoxicity at 10 µM [2, 12] | cytotoxicity at 1 µM [2, 12] | cytotoxicity at 10 µM [2, 13] | cytotoxicity at 1 µM [2, 13] | cytotoxicity at 10 µM [2, 14] | cytotoxicity at 1 µM [2, 14] | cytotoxicity at 10 µM [2, 15] | other results
1 | CN(C)CCC(c1ccc(Br)cc1)c1ccccn1 (stereo not drawn) [brompheniramine, brompheniramine maleate] | – | – | – | – | – | – | – | – | – | – | – | – | – | – | – | – | – | – | – | – | cytotoxic activity [1]: little or no cytotoxic activity; expression of TCTP (TCTP): little effect
2 | CC1=C(/C=C/C(C)=C/C=C/C(C)=C/C(=O)O)C(C)(C)CCC1 [ATRA, All Trans Retinoic Acid] | – | – | – | – | – | – | – | – | – | – | – | – | – | – | – | – | – | – | – | – | mice that developed a tumor (U937 cells): all six
3 | CN[C@H]1CC[C@@H](c2ccc(Cl)c(Cl)c2)c2ccccc21 [SQ42, sertraline] | 61% | 24% | 83% | 16% | 84% | 18% | 26% | 46% | 53% | 39% | 68% | 46% | 73% | 42% | 11% | 38% | 25% | 78% | 0% | 42% | cytotoxicity at 1 µM [2, 15]: 17%; cytotoxicity at 10 µM [2, 16]: 59%; cytotoxicity at 1 µM [2, 16]: 20%; cytotoxicity at 10 µM [2, 17]: 35%; cytotoxicity at 1 µM [2, 17]: 11%; cytotoxicity at 10 µM [2, 18]: 82%; cytotoxicity at 1 µM [2, 18]: 15%; cytotoxicity at 10 µM [2, 19]: 72%; cytotoxicity at 1 µM [2, 19]: 36%; cytotoxicity at 10 µM [2, 20]: 79%; cytotoxicity at 1 µM [2, 20]: 38%; toxicity for the animals (U937): toxic for the animals; tumor growth compared to the negative control (U937): decrease in tumor growth; tumor growth [3]: decreased tumor growth; death of test animals [3]: caused the death of certain test animals; cytotoxic effect group [4]: I
4 | Fc1ccc([C@@H]2CCNC[C@H]2COc2ccc3c(c2)OCO3)cc1 [A37, Paroxetine] | 55% | 24% | 67% | 25% | 62% | 21% | 43% | 6% | 50% | 39% | 32% | 39% | 76% | 53% | 53% | 33% | 35% | 41% | 9% | 50% | cytotoxicity at 1 µM [2, 15]: 0%; cytotoxicity at 10 µM [2, 16]: 41%; cytotoxicity at 1 µM [2, 16]: 25%; cytotoxicity at 10 µM [2, 17]: 54%; cytotoxicity at 1 µM [2, 17]: 19%; cytotoxicity at 10 µM [2, 18]: 63%; cytotoxicity at 1 µM [2, 18]: 3%; cytotoxicity at 10 µM [2, 19]: 56%; cytotoxicity at 1 µM [2, 19]: 12%; cytotoxicity at 10 µM [2, 20]: 97%; cytotoxicity at 1 µM [2, 20]: 53%; toxicity for the animals (U937): toxic for the animals; tumor growth compared to the negative control (U937): decrease in tumor growth; tumor growth [3]: decreased tumor growth; death of test animals [3]: caused the death of certain test animals; cytotoxic effect group [4]: I
